In patent US20040121474A1, “Detection and evaluation of chemically-mediated and ligand-mediated t-cell activation using optophoretic analysis” (Genoptix, Inc, priority 2002, published 2004):

How the values were obtained:
Type in all cases: cell-based
U937 cells [1] = assay: Escape velocity of PMA-treated U937 cells, time course
Description: PMA was dissolved in ethanol at a concentration of 5 mg/mL. 3 mls of U937 cells grown in RPMI 1640 media with supplements were removed from the culture flask and 1 ml was placed into each of three eppendorf tubes. Cells from the first tube were pelleted for 4 minutes at 10,000 rpm and resuspended in 250 uL PBS/1% BSA buffer for escape velocity measurements. […] These tubes were vortexed and placed in a 37° C. water bath for either one hour or six hours. At the end of the time point, the tube was removed, cells were pelleted and then resuspended as described above and escape velocity measurements taken.
The preferred method of performing cellular interrogation is through optical interrogation which includes determining the optophoretic properties of the cell(s). The optophoretic properties of the cell(s) can be determined in any number of ways. In one preferred embodiment, the escape velocity of cell(s) is used to determine the optophoretic properties. The escape velocity (measured typically in μm/sec) is defined as the minimum speed at which an interrogated cell no longer tracks the moving optical gradient.
The objective of this experiment is to compare the escape velocities of U937 cells that have been treated with the phorbol ester, phorbol 12 myristate 13-acetate (PMA), to the escape velocity of untreated U937 cells. PMA activates the Protein Kinase C pathway and may cause the cells to go into rapid cell differentiation, which may be indicated by a shift in escape velocity. The effect of PMA activation was tested at three timepoints: no activation, 1 hour of activation, and 6 hours of activation. At the end of the activation period, the cells were centrifuged for 4 minutes at 10,000 rpm. […] The cells were then centrifuged again and resuspended in buffer. The escape velocity and the cell size of cells from each tube were then calculated.

U937 cells [2] = assay: Escape velocity, time and concentration dependence of PMA; parameters: Escape velocity Ave.: unit not given here
Description: This experiment was conducted to test the effect of PMA concentration on the escape velocity of U937 cells. PMA concentrations of 10 ng/ml, 1 ng/ml, 100 pg/ml, 10 pg/ml and 1 pg/ml were tested. The control sample received EtOH and not PMA.
The PMA concentration was tested at three timepoints: 1 hour, 3 hours and 5 hours. At each timepoint, 300 μl of cells were removed from each flask. The cells were then spun for 5 minutes at 5000 rpm. The cells were then resuspended in […] PBS/1% BSA and […] of trypan blue.

U937 cells [3] = assay: Escape velocity, PMA inhibition by bisindolymaleimide; details: 10 ng/ml PMA only, four hours
Text: The objective of this experiment was to test the effect of bisindolymaleimide on cells exposed to PMA. Bisindolymaleimide is a Protein Kinase C inhibitor and should block the effect of PMA on U937 cells and their escape velocities. As shown in this and prior experiments, exposure of U937 cells to PMA results in an increase in the escape velocity of the cells. Therefore, it is anticipated that addition of bisindolymaleimide will reduce or eliminate the increase in escape velocity caused by PMA. This has in fact been observed in the data shown below.
Bisindolymaleimide was tested at two concentrations: 200 ng/ml and 50 ng/ml. Samples not treated with bisindolymaleimide received an equivalent amount of the carrier, MeOH, as a control. […] The concentration of PMA tested was 10 ng/ml. Samples not receiving PMA received DMSO.
Once the flasks were prepared, they were incubated at 37° C. 5% CO2 for four hours. At the four hour timepoint, 300 μl of cells were removed from each flask and pelleted at 5000 rpm for 5 minutes. The cells were then resuspended in 6 ml PBS/1% BSA and 60 μl trypan blue.

HL-60 cells = assay: Fast scan analysis, differentiation of HL-60 cells; details: 400 ng/ml PMA, differentiation into monocytes/macrophages
Description: (§1) Fast scan analysis was also performed on HL-60 cells that were treated with PMA and DMSO. A time course evaluation of PMA treated HL-60 cells was performed with fast scan data taken at 16 hours, 24 hours, 40 hours, and 72 hours post-treatment with 400 ng/ml PMA. A control sample of HL-60 cells was also tested using EtOH as the vehicle for purposes of comparing the differentiated cells with the undifferentiated HL-60 cells. The PMA-treated and control cells were harvested and trypsinized. The samples were then resuspended in PBS/1% BSA. A set of samples was also obtained and left as pellets at 4° C. for subsequent FACS analysis.
A time course evaluation of DMSO treated HL-60 cells was performed with fast scan data taken at 16 hours, 24 hours, 40 hours, and 70 hours post-treatment with 1% DMSO. A control sample of HL-60 cells was also tested for purposes of comparing the differentiated cells with the undifferentiated HL-60 cells. The DMSO-treated and control cells were then harvested and resuspended in PBS/1% BSA. A set of samples was also obtained and left as pellets at 4° C. for subsequent FACS analysis.

[4] = system: CD11b expression in HL-60 cells; assay: FACS CD11b expression profile; details: 400 ng/ml PMA
Description: as §1
FIG. 145 illustrates a histogram of the travel distance of the control cells as well as the PMA-treated cells at 16 hours, 24 hours, 40 hours, and 72 hours post-treatment. FIG. 146 illustrates the mean travel distances of the control cells as well as the PMA-treated cells at 16 hours, 24 hours, 40 hours, and 72 hours post-treatment. FIG. 147 illustrates the FACS CD11b expression profile in PMA-treated HL-60 cells as well as the control. CD11b is a known marker of cellular differentiation and is expressed on the surface of differentiating cells. […] The data illustrate that Optophoretic analysis can be used as an assay for the detection and quantification of cellular differentiation. […]

With `CCCCCCCCCCCCCC(=O)O[C@@H]1[C@@H](C)[C@@]2(O)[C@@H](C=C(CO)C[C@]3(O)C(=O)C(C)=C[C@@H]23)[C@@H]2C(C)(C)[C@]12OC(C)=O` [PMA, phorbol 12 myristate 13-acetate] the “distribution of escape velocities (FIG. 31)” value (U937 cells [1]; 0.01 μg/ml PMA, 6 and 9 hours post treatment) was “clear trend toward higher escape velocities over time”, the “escape velocity as compared to the untreated cells” value (U937 cells [1]; 5 ug/mL PMA, 6 hours) was “significantly higher escape velocity” and the “Escape velocity Average” value (U937 cells [1]; 1 hour of PMA activation) was 15.3 μm/sec. The “Escape velocity Average” value (U937 cells [1]; 6 hours of PMA activation) was 28.0 μm/sec, the “Escape velocity Ave.” value (U937 cells [2]; 10 pg/ml PMA, 1 Hour Activation) was 14.4 and the “Escape velocity Ave.” value (U937 cells [2]; 10 pg/ml PMA, 3 Hour Activation) was 14.5. For the same molecule, the “Escape velocity Ave.” value (U937 cells [2]; 10 pg/ml PMA, 5 Hour Activation) was 14.1, the “Escape velocity Ave.” value (U937 cells [2]; 100 pg/ml PMA, 1 Hour Activation) was 14.4 and the “Escape velocity Ave.” value (U937 cells [2]; 100 pg/ml PMA, 3 Hour Activation) was 15.5. The “Escape velocity Ave.” value (U937 cells [2]; 100 pg/ml PMA, 5 Hour Activation) was 16.1, the “Escape velocity Ave.” value (U937 cells [2]; 1 ng/ml PMA, 1 Hour Activation) was 14.3 and the “Escape velocity Ave.” value (U937 cells [2]; 1 ng/ml PMA, 3 Hour Activation) was 15.1. For the same molecule, the “Escape velocity Ave.” value (U937 cells [2]; 1 ng/ml PMA, 5 Hour Activation) was 16.5, the “Escape velocity Ave.” value (U937 cells [2]; 10 ng/ml PMA, 1 Hour Activation) was 14.8 and the “Escape velocity Ave.” value (U937 cells [2]; 10 ng/ml PMA, 3 Hour Activation) was 15.2. The “Escape velocity Ave.” value (U937 cells [2]; 10 ng/ml PMA, 5 Hour Activation) was 16.2, the “Optophoretic difference (escape velocity)” value (U937 cells [2]; two lowest concentrations, 10 pg/ml and 1 pg/ml) was “no Optophoretic difference” and the “Escape velocity Ave.” value (U937 cells [3]) was 15.4 μm/sec. The “time after treatment at which Optophoretic analysis detected cellular differentiation” value (HL-60 cells) was at most 16 h and the “time after treatment at which a noticeable change in CD11b expression levels was observed” value [4] was “about 40 hours”.
